According to PubChem BioAssay (NCI):
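Assay format: 96-well plates, 48-hour exposure. GI50 marks 50% less growth. TGI: total growth inhibition.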

Assays:
Assay in all cases: growth of human tumour cells (NCI), 48 h
COLO 205 colon = test system: COLO 205 colon
SNB-19 CNS = test system: SNB-19 CNS
LOX IMVI melanoma = test system: LOX IMVI melanoma
HT29 colon = test system: HT29 colon
U251 CNS = test system: U251 CNS
NCI-H226 lung = test system: NCI-H226 lung
NCI/ADR-RES ovarian = test system: NCI/ADR-RES ovarian
SK-MEL-5 melanoma = test system: SK-MEL-5 melanoma
IGROV1 ovarian = test system: IGROV1 ovarian
HCT-15 colon = test system: HCT-15 colon
SK-OV-3 ovarian = test system: SK-OV-3 ovarian
SF-539 CNS = test system: SF-539 CNS
OVCAR-3 ovarian = test system: OVCAR-3 ovarian
PC-3 prostate = test system: PC-3 prostate
RPMI-8226 leukemia = test system: RPMI-8226 leukemia
786-0 renal = test system: 786-0 renal
M14 melanoma = test system: M14 melanoma
SN12C renal = test system: SN12C renal
MALME-3M melanoma = test system: MALME-3M melanoma
SR leukemia = test system: SR leukemia
MDA-MB-435 = test system: MDA-MB-435
OVCAR-8 ovarian = test system: OVCAR-8 ovarian
ACHN renal = test system: ACHN renal
SK-MEL-2 melanoma = test system: SK-MEL-2 melanoma
DU-145 prostate = test system: DU-145 prostate
MDA-MB-231 breast = test system: MDA-MB-231 breast
HCT-116 colon = test system: HCT-116 colon
A549 NSCLC = test system: A549 NSCLC
HL-60(TB) leukemia = test system: HL-60(TB) leukemia
EKVX NSCLC = test system: EKVX NSCLC
BT-549 breast = test system: BT-549 breast
CCRF-CEM leukemia = test system: CCRF-CEM leukemia
SW-620 colon = test system: SW-620 colon
RXF 393 renal = test system: RXF 393 renal
A498 renal = test system: A498 renal
K-562 leukemia = test system: K-562 leukemia
SF-295 CNS = test system: SF-295 CNS
NCI-H522 lung = test system: NCI-H522 lung
UACC-62 melanoma = test system: UACC-62 melanoma
SF-268 CNS = test system: SF-268 CNS
UO-31 renal = test system: UO-31 renal
TK-10 renal = test system: TK-10 renal
OVCAR-4 ovarian = test system: OVCAR-4 ovarian
OVCAR-5 ovarian = test system: OVCAR-5 ovarian
HOP-62 NSCLC = test system: HOP-62 NSCLC
CAKI-1 renal = test system: CAKI-1 renal
HS 578T breast = test system: HS 578T breast
T-47D breast = test system: T-47D breast
NCI-H460 lung = test system: NCI-H460 lung
KM12 colon = test system: KM12 colon
HOP-92 NSCLC = test system: HOP-92 NSCLC
SNB-75 CNS = test system: SNB-75 CNS
SK-MEL-28 melanoma = test system: SK-MEL-28 melanoma
HCC-2998 colon = test system: HCC-2998 colon
MCF7 breast = test system: MCF7 breast
MOLT-4 leukemia = test system: MOLT-4 leukemia
UACC-257 melanoma = test system: UACC-257 melanoma

## C#C[C@]1(O)CC[C@H]2[C@@H]3CC=C4c5sc(Nc6ccc(Cl)cn6)nc5CC[C@]4(C)[C@H]3CC[C@@]21C
COLO 205 colon
  GI50: 23.5 µM
  TGI: > 100 µM
SNB-19 CNS
  GI50: 4.95 µM
  TGI: > 100 µM
LOX IMVI melanoma
  GI50: 2.1 µM
  TGI: 4.33 µM
HT29 colon
  GI50: 6.83 µM
  TGI: > 100 µM
U251 CNS
  GI50: 2.66 µM
  TGI: > 100 µM
NCI-H226 lung
  GI50: 7.41 µM
  TGI: > 100 µM
NCI/ADR-RES ovarian
  GI50: 15.9 µM
  TGI: > 100 µM
SK-MEL-5 melanoma
  GI50: 79.5 µM
  TGI: > 100 µM
IGROV1 ovarian
  GI50: 9.14 µM
  TGI: > 100 µM
HCT-15 colon
  GI50: 3.03 µM
  TGI: > 100 µM
SK-OV-3 ovarian
  GI50: 3.44 µM
  TGI: 13.4 µM
SF-539 CNS
  GI50: 1.62 µM
  TGI: 4.03 µM
OVCAR-3 ovarian
  GI50: 7.66 µM
  TGI: > 100 µM
PC-3 prostate
  GI50: 1.68 µM
  TGI: 6.91 µM
RPMI-8226 leukemia
  GI50: 1.03 µM
  TGI: 4.18 µM
786-0 renal
  GI50: 1.56 µM
  TGI: 3.42 µM
M14 melanoma
  GI50: 3.12 µM
  TGI: > 100 µM
SN12C renal
  GI50: > 100 µM
  TGI: > 100 µM
MALME-3M melanoma
  GI50: 8.97 µM
  TGI: > 100 µM
SR leukemia
  GI50: 3.08 µM
  TGI: > 100 µM
MDA-MB-435
  GI50: 3.73 µM
  TGI: > 100 µM
OVCAR-8 ovarian
  GI50: 6.32 µM
  TGI: > 100 µM
ACHN renal
  GI50: 5.07 µM
  TGI: > 100 µM
SK-MEL-2 melanoma
  GI50: 3.83 µM
  TGI: > 100 µM
DU-145 prostate
  GI50: > 100 µM
  TGI: > 100 µM
MDA-MB-231 breast
  GI50: 3.34 µM
  TGI: > 100 µM
HCT-116 colon
  GI50: 3.47 µM
  TGI: > 100 µM
A549 NSCLC
  GI50: 6.4 µM
  TGI: > 100 µM
HL-60(TB) leukemia
  GI50: 3.5 µM
  TGI: > 100 µM
EKVX NSCLC
  GI50: 3.51 µM
  TGI: > 100 µM
BT-549 breast
  GI50: 2.88 µM
  TGI: 25.2 µM
CCRF-CEM leukemia
  GI50: 0.0721 µM
  TGI: > 100 µM
SW-620 colon
  GI50: 4.77 µM
  TGI: > 100 µM
RXF 393 renal
  GI50: 0.642 µM
  TGI: 2.25 µM
A498 renal
  GI50: 2.15 µM
  TGI: 4.75 µM
K-562 leukemia
  GI50: 3.34 µM
  TGI: > 100 µM
SF-295 CNS
  GI50: 1.82 µM
  TGI: 3.75 µM
NCI-H522 lung
  GI50: 10.5 µM
  TGI: > 100 µM
UACC-62 melanoma
  GI50: 3.23 µM
  TGI: > 100 µM
SF-268 CNS
  GI50: 4.35 µM
  TGI: > 100 µM
UO-31 renal
  GI50: 2.96 µM
  TGI: > 100 µM
TK-10 renal
  GI50: > 100 µM
  TGI: > 100 µM
OVCAR-4 ovarian
  GI50: 7.73 µM
  TGI: > 100 µM
OVCAR-5 ovarian
  GI50: 24.1 µM
  TGI: > 100 µM
HOP-62 NSCLC
  GI50: 3.31 µM
  TGI: > 100 µM
CAKI-1 renal
  GI50: 3.48 µM
  TGI: > 100 µM
HS 578T breast
  GI50: 2.17 µM
  TGI: 6.53 µM
T-47D breast
  GI50: 61.2 µM
  TGI: > 100 µM
NCI-H460 lung
  GI50: 3.95 µM
  TGI: > 100 µM
KM12 colon
  GI50: 4.04 µM
  TGI: > 100 µM
HOP-92 NSCLC
  GI50: 3.45 µM
  TGI: 73.4 µM
SNB-75 CNS
  GI50: 4.07 µM
  TGI: > 100 µM
SK-MEL-28 melanoma
  GI50: 1.72 µM
  TGI: 3.68 µM
HCC-2998 colon
  GI50: 66.8 µM
  TGI: > 100 µM
MCF7 breast
  GI50: 1.8 µM
  TGI: 4.47 µM
MOLT-4 leukemia
  GI50: 2.79 µM
  TGI: > 100 µM
UACC-257 melanoma
  GI50: 2.49 µM
  TGI: 6.65 µM
